Experimental data from patent US20260248765A1, “TIME RELEASE SLEEP AID SYSTEM” (NightWise, LLC, priority 2017, published 2026).

Test: Release time based on dissolution times of each ingredient in water
Assay type: physicochemical
Conditions: soft chew composition of Table 2
Method: The release time was determined based on dissolution times of each ingredient in water.

**Q.** For `N[C@@H](Cc1c[nH]c2ccc(O)cc12)C(=O)O` [5-Hydroxytryptophan], which “Release Time” value is on record?
**A.** 0 min

**Q.** With `NCC(=O)[O-].NCC(=O)[O-].[Mg+2]` [Magnesium Glycinate] as the compound, how does the “Release Time” value read?
**A.** 0 min

**Q.** For `COc1ccc2[nH]cc(CCNC(C)=O)c2c1` [Melatonin, reference compound], which “Release Time” value is on record?
**A.** 0 min

**Q.** Which “Release Time” value does the source give for `NCCCC(=O)O` [PHARMAGABA ™] here?
**A.** 0 min

**Q.** For `CN1c2c(nc(N)[nH]c2=O)NC[C@@H]1CNc1ccc(C(=O)N[C@@H](CCC(=O)O)C(=O)O)cc1.N[C@H]1C(O)O[C@H](CO)[C@@H](O)[C@@H]1O` [QUATREFOLIC ™, (6S)-5-methyltetrahydrofolic acid, glucosamine salt], which “Release Time” value is on record?
**A.** 0 min

**Q.** Which “Release Time” value does the source give for `Cc1cc2nc3c(=O)[nH]c(=O)nc-3n(C[C@H](O)[C@H](O)[C@H](O)COP(=O)([O-])O)c2cc1C.[Na+]` [Riboflavin 5′-Phosphate Sodium] here?
**A.** 0 min

**Q.** Which “Release Time” value does the source give for `Cc1ncc(COP(=O)(O)O)c(C=O)c1O.O` [Vitamin B6, pyridoxal-5-phosphate monohydrate] here?
**A.** 0 min

**Q.** With `C/C1=C2/[N-][C@H]([C@H](CC(N)=O)[C@@]2(C)CCC(=O)NC[C@@H](C)OP(=O)([O-])O[C@H]2[C@@H](O)[C@@H](n3cnc4cc(C)c(C)cc43)O[C@@H]2CO)[C@]2(C)N=C(/C(C)=C3N=C(/C=C4N=C1[C@@H](CCC(N)=O)C\4(C)C)[C@@H](CCC(N)=O)[C@]\3(C)CC(N)=O)[C@@H](CCC(N)=O)[C@]2(C)CC(N)=O.[CH3-].[Co+3]` [Vitamin B12, methylcobalamin] as the compound, how does the “Release Time” value read?
**A.** 0 min
